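Exposure lasted 48 hours, with cells grown in 96-well plates and compounds tested at five concentrations. TGI is the concentration that stops growth completely.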
Key:
Assay in all cases: NCI anticancer screen, dose series, 48 h
A498 renal = system: A498 renal
CCRF-CEM leukemia = system: CCRF-CEM leukemia
SK-OV-3 ovarian = system: SK-OV-3 ovarian
HCT-15 colon = system: HCT-15 colon
ACHN renal = system: ACHN renal
A549 NSCLC = system: A549 NSCLC
EKVX NSCLC = system: EKVX NSCLC
NCI-H23 lung = system: NCI-H23 lung
KM12 colon = system: KM12 colon
SF-295 CNS = system: SF-295 CNS
U251 CNS = system: U251 CNS
PC-3 prostate = system: PC-3 prostate
HS 578T breast = system: HS 578T breast
MCF7 breast = system: MCF7 breast
MDA-MB-231 breast = system: MDA-MB-231 breast
M14 melanoma = system: M14 melanoma
OVCAR-4 ovarian = system: OVCAR-4 ovarian
RXF 393 renal = system: RXF 393 renal
COLO 205 colon = system: COLO 205 colon
UO-31 renal = system: UO-31 renal
SK-MEL-28 melanoma = system: SK-MEL-28 melanoma
OVCAR-8 ovarian = system: OVCAR-8 ovarian
HOP-62 NSCLC = system: HOP-62 NSCLC
HL-60(TB) leukemia = system: HL-60(TB) leukemia
TK-10 renal = system: TK-10 renal
SK-MEL-5 melanoma = system: SK-MEL-5 melanoma
MALME-3M melanoma = system: MALME-3M melanoma
HOP-92 NSCLC = system: HOP-92 NSCLC
OVCAR-3 ovarian = system: OVCAR-3 ovarian
OVCAR-5 ovarian = system: OVCAR-5 ovarian
LOX IMVI melanoma = system: LOX IMVI melanoma
NCI-H522 lung = system: NCI-H522 lung
NCI-H226 lung = system: NCI-H226 lung
DU-145 prostate = system: DU-145 prostate
SN12C renal = system: SN12C renal
T-47D breast = system: T-47D breast
SNB-19 CNS = system: SNB-19 CNS
MDA-N = system: MDA-N
CAKI-1 renal = system: CAKI-1 renal
SK-MEL-2 melanoma = system: SK-MEL-2 melanoma
786-0 renal = system: 786-0 renal
HCC-2998 colon = system: HCC-2998 colon
NCI-H460 lung = system: NCI-H460 lung
MOLT-4 leukemia = system: MOLT-4 leukemia
HT29 colon = system: HT29 colon
UACC-62 melanoma = system: UACC-62 melanoma
BT-549 breast = system: BT-549 breast
NCI/ADR-RES ovarian = system: NCI/ADR-RES ovarian
RPMI-8226 leukemia = system: RPMI-8226 leukemia
SNB-75 CNS = system: SNB-75 CNS
SF-539 CNS = system: SF-539 CNS
HCT-116 colon = system: HCT-116 colon
K-562 leukemia = system: K-562 leukemia
SF-268 CNS = system: SF-268 CNS
IGROV1 ovarian = system: IGROV1 ovarian
UACC-257 melanoma = system: UACC-257 melanoma
MDA-MB-435 = system: MDA-MB-435
SW-620 colon = system: SW-620 colon
SR leukemia = system: SR leukemia

Question: How did the TGI (A498 renal) turn out when CCOC(=O)c1c(O)[nH]c(=O)c(CC)c1C was run?
Answer: > 100000 nM

Question: And the TGI (CCRF-CEM leukemia)?
Answer: > 100000 nM

Question: What about the TGI (SK-OV-3 ovarian) of the same compound?
Answer: > 100000 nM

Question: And the TGI (HCT-15 colon)?
Answer: > 100000 nM

Question: What about the TGI (ACHN renal) of the same compound?
Answer: > 100000 nM

Question: What about the TGI (A549 NSCLC) of the same compound?
Answer: > 100000 nM

Question: And the TGI (EKVX NSCLC)?
Answer: > 100000 nM

Question: And the TGI (NCI-H23 lung)?
Answer: > 100000 nM

Question: And the TGI (KM12 colon)?
Answer: > 100000 nM

Question: And the TGI (SF-295 CNS)?
Answer: > 100000 nM

Question: What about the TGI (U251 CNS) of the same compound?
Answer: > 100000 nM

Question: What about the TGI (PC-3 prostate) of the same compound?
Answer: > 100000 nM

Question: What about the TGI (HS 578T breast) of the same compound?
Answer: > 100000 nM

Question: What about the TGI (MCF7 breast) of the same compound?
Answer: > 100000 nM

Question: And the TGI (MDA-MB-231 breast)?
Answer: > 100000 nM

Question: What about the TGI (M14 melanoma) of the same compound?
Answer: > 100000 nM

Question: And the TGI (OVCAR-4 ovarian)?
Answer: > 100000 nM

Question: What about the TGI (RXF 393 renal) of the same compound?
Answer: > 100000 nM

Question: And the TGI (COLO 205 colon)?
Answer: > 100000 nM

Question: What about the TGI (UO-31 renal) of the same compound?
Answer: > 100000 nM

Question: And the TGI (SK-MEL-28 melanoma)?
Answer: > 100000 nM

Question: What about the TGI (OVCAR-8 ovarian) of the same compound?
Answer: > 100000 nM

Question: What about the TGI (HOP-62 NSCLC) of the same compound?
Answer: > 100000 nM

Question: And the TGI (HL-60(TB) leukemia)?
Answer: > 100000 nM

Question: And the TGI (TK-10 renal)?
Answer: > 100000 nM

Question: And the TGI (SK-MEL-5 melanoma)?
Answer: > 100000 nM

Question: And the TGI (MALME-3M melanoma)?
Answer: > 100000 nM

Question: What about the TGI (HOP-92 NSCLC) of the same compound?
Answer: > 100000 nM

Question: What about the TGI (OVCAR-3 ovarian) of the same compound?
Answer: > 100000 nM

Question: And the TGI (OVCAR-5 ovarian)?
Answer: > 100000 nM

Question: What about the TGI (LOX IMVI melanoma) of the same compound?
Answer: > 100000 nM

Question: What about the TGI (NCI-H522 lung) of the same compound?
Answer: > 100000 nM

Question: What about the TGI (NCI-H226 lung) of the same compound?
Answer: > 100000 nM

Question: And the TGI (DU-145 prostate)?
Answer: > 100000 nM

Question: What about the TGI (SN12C renal) of the same compound?
Answer: > 100000 nM

Question: What about the TGI (T-47D breast) of the same compound?
Answer: > 100000 nM

Question: What about the TGI (SNB-19 CNS) of the same compound?
Answer: > 100000 nM

Question: What about the TGI (MDA-N) of the same compound?
Answer: > 100000 nM

Question: What about the TGI (CAKI-1 renal) of the same compound?
Answer: > 100000 nM

Question: And the TGI (SK-MEL-2 melanoma)?
Answer: > 100000 nM

Question: What about the TGI (786-0 renal) of the same compound?
Answer: > 100000 nM

Question: And the TGI (HCC-2998 colon)?
Answer: > 100000 nM

Question: What about the TGI (NCI-H460 lung) of the same compound?
Answer: > 100000 nM

Question: What about the TGI (MOLT-4 leukemia) of the same compound?
Answer: > 100000 nM

Question: What about the TGI (HT29 colon) of the same compound?
Answer: > 100000 nM

Question: What about the TGI (UACC-62 melanoma) of the same compound?
Answer: > 100000 nM

Question: And the TGI (BT-549 breast)?
Answer: > 100000 nM

Question: What about the TGI (NCI/ADR-RES ovarian) of the same compound?
Answer: > 100000 nM

Question: And the TGI (RPMI-8226 leukemia)?
Answer: > 100000 nM

Question: What about the TGI (SNB-75 CNS) of the same compound?
Answer: > 100000 nM

Question: And the TGI (SF-539 CNS)?
Answer: > 100000 nM

Question: And the TGI (HCT-116 colon)?
Answer: > 100000 nM

Question: And the TGI (K-562 leukemia)?
Answer: > 100000 nM

Question: What about the TGI (SF-268 CNS) of the same compound?
Answer: > 100000 nM

Question: What about the TGI (IGROV1 ovarian) of the same compound?
Answer: > 100000 nM

Question: What about the TGI (UACC-257 melanoma) of the same compound?
Answer: > 100000 nM

Question: What about the TGI (MDA-MB-435) of the same compound?
Answer: > 100000 nM

Question: And the TGI (SW-620 colon)?
Answer: > 100000 nM

Question: COc1ccc2c(c1)c1nn(CCN(C)C)c3ccc4c(=O)n(CCN(C)C)c(=O)n2c4c13 was tested. Which TGI (A498 renal) did it give?
Answer: 526 nM

Question: What about the TGI (CCRF-CEM leukemia) of the same compound?
Answer: 107 nM

Question: And the TGI (SK-OV-3 ovarian)?
Answer: 304 nM

Question: And the TGI (HCT-15 colon)?
Answer: 173 nM

Question: What about the TGI (ACHN renal) of the same compound?
Answer: 432 nM

Question: What about the TGI (A549 NSCLC) of the same compound?
Answer: 75.9 nM

Question: What about the TGI (EKVX NSCLC) of the same compound?
Answer: 405 nM

Question: And the TGI (NCI-H23 lung)?
Answer: 231 nM

Question: And the TGI (KM12 colon)?
Answer: 481 nM

Question: What about the TGI (SF-295 CNS) of the same compound?
Answer: 224 nM

Question: And the TGI (U251 CNS)?
Answer: 1690 nM

Question: What about the TGI (PC-3 prostate) of the same compound?
Answer: 262 nM

Question: And the TGI (HS 578T breast)?
Answer: 244 nM

Question: And the TGI (MCF7 breast)?
Answer: 198 nM

Question: And the TGI (MDA-MB-231 breast)?
Answer: 260 nM

Question: And the TGI (M14 melanoma)?
Answer: 324 nM

Question: And the TGI (OVCAR-4 ovarian)?
Answer: 64.5 nM

Question: And the TGI (RXF 393 renal)?
Answer: 380 nM

Question: What about the TGI (COLO 205 colon) of the same compound?
Answer: 182 nM

Question: And the TGI (UO-31 renal)?
Answer: 329 nM

Question: And the TGI (SK-MEL-28 melanoma)?
Answer: 854 nM

Question: And the TGI (OVCAR-8 ovarian)?
Answer: 175 nM

Question: What about the TGI (SR leukemia) of the same compound?
Answer: 52.2 nM

Question: What about the TGI (HOP-62 NSCLC) of the same compound?
Answer: 217 nM

Question: What about the TGI (HL-60(TB) leukemia) of the same compound?
Answer: 340 nM

Question: What about the TGI (TK-10 renal) of the same compound?
Answer: 696 nM

Question: What about the TGI (SK-MEL-5 melanoma) of the same compound?
Answer: 784 nM

Question: What about the TGI (MALME-3M melanoma) of the same compound?
Answer: 555 nM

Question: What about the TGI (OVCAR-3 ovarian) of the same compound?
Answer: 255 nM

Question: And the TGI (OVCAR-5 ovarian)?
Answer: 440 nM

Question: And the TGI (LOX IMVI melanoma)?
Answer: 469 nM

Question: And the TGI (NCI-H522 lung)?
Answer: 74.7 nM

Question: What about the TGI (NCI-H226 lung) of the same compound?
Answer: 1100 nM

Question: And the TGI (DU-145 prostate)?
Answer: 603 nM

Question: What about the TGI (SN12C renal) of the same compound?
Answer: 517 nM

Question: What about the TGI (T-47D breast) of the same compound?
Answer: > 25800 nM

Question: And the TGI (SNB-19 CNS)?
Answer: 635 nM

Question: And the TGI (MDA-N)?
Answer: 186 nM

Question: What about the TGI (CAKI-1 renal) of the same compound?
Answer: 601 nM

Question: And the TGI (SK-MEL-2 melanoma)?
Answer: 192 nM

Question: And the TGI (786-0 renal)?
Answer: 136 nM

Question: And the TGI (HCC-2998 colon)?
Answer: 54.6 nM

Question: And the TGI (NCI-H460 lung)?
Answer: 14.2 nM

Question: What about the TGI (MOLT-4 leukemia) of the same compound?
Answer: 197 nM

Question: What about the TGI (UACC-62 melanoma) of the same compound?
Answer: 474 nM

Question: What about the TGI (BT-549 breast) of the same compound?
Answer: 2600 nM

Question: What about the TGI (NCI/ADR-RES ovarian) of the same compound?
Answer: 277 nM

Question: What about the TGI (RPMI-8226 leukemia) of the same compound?
Answer: < 19.2 nM

Question: And the TGI (SNB-75 CNS)?
Answer: 77.8 nM

Question: What about the TGI (SF-539 CNS) of the same compound?
Answer: 1770 nM

Question: What about the TGI (HCT-116 colon) of the same compound?
Answer: 294 nM

Question: What about the TGI (K-562 leukemia) of the same compound?
Answer: 448 nM

Question: What about the TGI (SF-268 CNS) of the same compound?
Answer: 211 nM

Question: And the TGI (IGROV1 ovarian)?
Answer: 1650 nM

Question: And the TGI (UACC-257 melanoma)?
Answer: 717 nM

Question: What about the TGI (MDA-MB-435) of the same compound?
Answer: 166 nM

Question: And the TGI (SW-620 colon)?
Answer: 355 nM
